According to ChEMBL document CHEMBL1123114, “Structure-activity relationships of arylimidazopyridine cardiotonics: discovery and inotropic activity of 2-[2-methoxy-4-(methylsulfinyl)phenyl]-1H-imidazo[4,5-c]pyridine” (1985):

Legend:
Felis catus [1] = organism: Felis catus; assay: Compound tested for contractility in isolated cat papillary muscle at 10 e-4 M.; assay type: functional
Felis catus [2] = organism: Felis catus; assay: Compound tested for contractility in isolated cat papillary muscle at 10 e-5 M.; assay type: functional
Felis catus [3] = organism: Felis catus; assay: Response ratio = (percent increase to drug)/(percent increase to 10 E-4 M isoproterenol); assay type: functional
Felis catus [4] = organism: Felis catus; assay: Response ratio = (percent increase to drug)/(percent increase to 10 E-5 M isoproterenol); assay type: functional
Felis catus [5] = organism: Felis catus; assay: Response ratio = (percent increase to drug)/(percent increase to 10 E-6 M isoproterenol); assay type: functional
Felis catus [6] = organism: Felis catus; assay: Compound tested for contractility in isolated cat papillary muscle at 10 e-6 M.; assay type: functional
Canis familiaris [7] = assay: Compound tested for contractility in anesthetized dog when administered intravenously.; assay type: functional; details: Canis lupus familiaris, iv
Canis familiaris [8] = assay: Percent change in heart rate in anesthetized dog; assay type: functional, Canis lupus familiaris
Canis familiaris [9] = assay: Percent change in mean arterial blood pressure in anesthetized dog; assay type: functional, Canis lupus familiaris
Canis familiaris [10] = assay: maximum percent increase in contractility in anesthetized dog when administered 4 mg/Kg intravenously; assay type: functional, Canis lupus familiaris
Canis familiaris [11] = assay: Compound tested for contractility in anesthetized dog when administered intravenously; ED50 not obtained; assay type: functional, organism-based; details: Canis lupus familiaris
Canis familiaris [12] = assay: Percent change in heart rate in anesthetized dog; ED50 not obtained; assay type: functional, organism-based; details: Canis lupus familiaris
Canis familiaris [13] = assay: Percent change in mean arterial blood pressure in anesthetized dog; ED50 not obtained; assay type: functional, organism-based; details: Canis lupus familiaris

Structure (SMILES) | Control (Felis catus [1]) [%] | Control (Felis catus [2]) [%] | Response ratio (Felis catus [3]) | Response ratio (Felis catus [4]) | Response ratio (Felis catus [5]) | Control (Felis catus [6]) [%] | ED50 (Canis familiaris [7]) [mg/kg] | Change (Canis familiaris [8]) [%] | Change (Canis familiaris [9]) [%] | Increase (Canis familiaris [10]) [%] | ED50 (Canis familiaris [11]) | ED50 (Canis familiaris [12]) | ED50 (Canis familiaris [13])
COc1cc([N+](=O)[O-])ccc1-c1nc2cc[nH]cc-2n1 | 144 | 142 | 0.61 | 0.58 | 0.38 | 127 | 0.015 | 5 | -23 |  |  |  | 
COc1cc(C(F)(F)F)ccc1-c1nc2cc[nH]cc-2n1 | 135 | 139 | 0.49 | 0.54 |  |  | 0.009 | 10 | -12 |  |  |  | 
Cc1ccc(-c2nc3cc[nH]cc-3n2)cc1C | 226 | 133 | 1.75 | 0.46 |  |  | 5.2 | 0 | -53 |  |  |  | 
CN(C)c1ccc(-c2nc3cc[nH]cc-3n2)cc1 | 175 | 94 | 1.04 | -0.08 |  |  |  |  |  | <50 |  |  | 
COc1ccc(-c2nc3cccnc3[nH]2)cc1 | 173 | 104 | 1.01 | 0.06 |  |  |  |  |  |  | ED50 not obtained | ED50 not obtained | ED50 not obtained
Cc1ccc(-c2nc3cc[nH]cc-3n2)c(C)c1 | 100 | 93 | 0 | -0.1 |  |  | 1.4 | 12 | -24 |  |  |  | 
COc1cc(S(C)(=O)=O)ccc1-c1nc2ccc[nH]c-2n1 | 129 | 120 | 0.4 | 0.28 |  |  | 0.4 | 10 | -20 |  |  |  | 
CCOc1cc([S+](C)[O-])ccc1-c1nc2cc[nH]cc-2n1 (stereo not drawn) | 262 | 183 | 2.25 | 1.15 | 0.18 | 113 | 0.1 | 14 | -4 |  |  |  | 
Cc1ccccc1-c1nc2cc[nH]cc-2n1 | 188 | 106 | 1.22 | 0.09 |  |  | 2.2 | 24 | -20 |  |  |  | 
COc1ccc(-c2nc3cc[nH]cc-3n2)cc1OC | 252 | 164 | 2.11 | 0.89 |  |  | 0.4 | 15 | -9 |  |  |  | 
Clc1ccc(-c2nc3cc[nH]cc-3n2)c(Cl)c1 | 171 | 116 | 0.99 | 0.22 |  |  | 0.7 | 17 | -22 |  |  |  | 
COc1cc([S+](C)[O-])ccc1-c1nc2c[nH]cnc-2n1 (stereo not drawn) | 142 | 115 | 0.58 | 0.21 |  |  | 0.6 | 8 | 14 |  |  |  | 
COc1cc(S(C)(=O)=O)ccc1-c1nc2ccncc2[nH]1 | 221 | 176 | 1.68 | 1.05 |  |  | 0.02 | 8 | -5 |  |  |  | 
COc1ccc(-c2nc3cc[nH]cc-3n2)c(OCC[S+](C)[O-])c1 (stereo not drawn) | 186 | 123 | 1.19 | 0.32 |  |  | 5.2 | -4 | -37 |  |  |  | 
CCCCOc1ccc(-c2nc3cc[nH]cc-3n2)cc1 | 288 | 114 | 2.61 | 0.19 | 0.19 |  |  |  |  |  |  |  | 
CS(=O)(=O)c1ccc(-c2nc3cc[nH]cc-3n2)cc1 | 137 | 117 | 0.51 | 0.24 |  |  | 7.5 | 10 | 2 |  |  |  | 
Nc1cc(-c2ccncc2)c[nH]c1=O [INAMRINONE] | 190 | 143 | 1.25 | 0.61 |  |  | 1.3 | 11 | -9 |  |  |  | 
CCSCCOc1cc(OC)ccc1-c1nc2cc[nH]cc-2n1 | 134 | 128 | 0.47 | 0.39 |  |  | 1 | 20 | -21 |  |  |  | 
COc1cc([S+](C)[O-])ccc1-c1nc2cnccc2[nH]1 (stereo not drawn) [ISOMAZOLE] | 268 | 172 | 2.33 | 1 |  |  | 0.03 | 7 | -1 |  |  |  | 
CSc1ccc(-c2nc3cc[nH]cc-3n2)cc1 | 212 | 115 | 1.55 | 0.21 |  |  | 4 | 0 | -15 |  |  |  | 
COc1cc(Cl)ccc1-c1nc2cc[nH]cc-2n1 | 165 | 162 | 0.9 | 0.86 | 0.32 | 123 | 0.23 | 14 | -21 |  |  |  | 
COc1cc(C)ccc1-c1nc2cc[nH]cc-2n1 | 202 | 117 | 1.42 | 0.24 |  |  | 0.28 | 8 | -7 |  |  |  | 
COc1ccc(-c2nc3cc[nH]cc-3n2)cc1 | 205 | 104 | 1.46 | 0.07 |  |  | 1.7 | 17 | -14 |  |  |  | 
c1ccc(-c2nc3ccc[nH]c-3n2)cc1 | 112 | 101 | 0.15 | 0.01 |  |  | 8 | 7 | -36 |  |  |  | 
COc1ccc(-c2nc3cc[nH]cc-3n2)c(OC)c1 | 172 | 158 | 1 | 0.81 |  |  | 0.3 | 9 | -17 |  |  |  | 
COc1cc(Oc2ccccc2)ccc1-c1nc2cc[nH]cc-2n1 | 155 | 122 | 0.76 | 0.3 |  |  |  |  |  | <50 |  |  | 
Cc1cccc(-c2nc3cc[nH]cc-3n2)c1 | 195 | 118 | 1.32 | 0.25 |  |  | 1 | 17 | -20 |  |  |  | 
COc1cc([S+](C)[O-])ccc1-c1nc2cccnc2[nH]1 (stereo not drawn) [SULMAZOLE] | 156 | 112 | 0.78 | 0.16 |  |  | 0.3 | 13 | -10 |  |  |  | 
COc1ccc(-c2nc3cc[nH]cc-3n2)c(OCCSC)c1 | 140 | 122 | 0.55 | 0.3 |  |  | 1.1 | 4 | -21 |  |  |  | 
